Values quoted from earlier work in patent US20160143918A1, “DRUG RELEASING AGENT BASED ON beta-SITOSTEROL AND A PREPARATION METHOD THEREOF” (School of Medicine Jiaying University, priority 2014, published 2016).

For CC[C@H](CC[C@@H](C)[C@H]1CC[C@H]2[C@@H]3CC=C4C[C@@H](O)CC[C@]4(C)[C@H]3CC[C@]12C)C(C)C [β-sitosterol], which “solubility in organic solvents” value (organic solvents) is on record?
Its value is “soluble in organic solvents”.

And the solubility in water (water)?
Its solubility in water is “insoluble in water”.
